Data taken from patent US20040156869A1, “2-substituted quinazolin-4-ylamine analogues” (Neurogen Corporation, priority 2002, published 2004).

These compounds were tested against human capsaicin receptor (VR1) (Homo sapiens, UniProt Q8NER1) (assay: Capsaicin receptor binding assay ([3H]RTX competition, VR1-transfected HEK293 membranes)).
Chain of human capsaicin receptor (VR1) (Q8NER1 whole entry): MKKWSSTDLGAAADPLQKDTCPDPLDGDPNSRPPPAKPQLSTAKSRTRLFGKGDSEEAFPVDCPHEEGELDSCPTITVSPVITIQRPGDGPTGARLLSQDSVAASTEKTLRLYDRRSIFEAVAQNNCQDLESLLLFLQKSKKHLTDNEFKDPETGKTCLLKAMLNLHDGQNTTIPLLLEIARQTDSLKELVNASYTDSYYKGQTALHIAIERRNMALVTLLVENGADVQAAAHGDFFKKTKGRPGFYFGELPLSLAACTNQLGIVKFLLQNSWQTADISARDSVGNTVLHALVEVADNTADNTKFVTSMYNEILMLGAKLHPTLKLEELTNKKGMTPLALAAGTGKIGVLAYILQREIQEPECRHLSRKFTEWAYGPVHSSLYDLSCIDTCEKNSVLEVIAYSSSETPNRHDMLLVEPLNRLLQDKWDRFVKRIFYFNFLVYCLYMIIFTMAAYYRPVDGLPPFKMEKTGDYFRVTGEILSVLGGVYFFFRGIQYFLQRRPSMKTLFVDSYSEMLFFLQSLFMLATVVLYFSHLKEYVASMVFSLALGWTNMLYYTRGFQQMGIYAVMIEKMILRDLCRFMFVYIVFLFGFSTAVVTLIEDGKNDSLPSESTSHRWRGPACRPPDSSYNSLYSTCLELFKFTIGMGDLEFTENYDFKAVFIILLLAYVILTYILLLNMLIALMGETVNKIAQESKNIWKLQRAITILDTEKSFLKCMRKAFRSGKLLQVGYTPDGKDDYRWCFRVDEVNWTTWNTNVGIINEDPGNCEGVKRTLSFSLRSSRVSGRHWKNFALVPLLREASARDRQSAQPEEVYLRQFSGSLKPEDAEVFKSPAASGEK

| Ki | Structure (SMILES) |
| --- | --- |
| < 1 µM | CC(C)(C)c1ccc(Nc2nc(CN3CCC[C@H]3C(=O)O)nc3cc(-c4ncccc4C(F)(F)F)ccc23)cc1 [Compound 744, (S)-1-[4-(4-tert-Butyl-phenylamino)-7-(3-trifluoromethyl-pyridin-2-yl)-quinazolin-2-ylmethyl]-pyrrolidine-2-carboxylic acid] |
| < 1 µM | CC(C)(C)c1ccc(Nc2nc(CN3CCC[C@@H]3C(=O)O)nc3cc(-c4ncccc4C(F)(F)F)ccc23)cc1 [Compound 745, (R)-1-[4-(4-tert-Butyl-phenylamino)-7-(3-trifluoromethyl-pyridin-2-yl)-quinazolin-2-ylmethyl]-pyrrolidine-2-carboxylic acid] |
| < 1 µM | Cc1cccnc1-c1ccc2c(Nc3ccc(C(F)(F)F)cc3)nc(CN3CCCC(C)(C)C3)nc2n1 [Compound 746, [2-(3,3-Dimethyl-piperidin-1-ylmethyl)-7-(3-methyl-pyridin-2-yl)-pyrido[2,3-d]pyrimidin-4-yl]-(4-trifluoromethyl-phenyl)-amine] |
| < 1 µM | Cc1cccnc1-c1ccc2c(Nc3ccc(C(F)(F)F)cc3)nc(CN3CCC[C@H]3C(=O)O)nc2n1 [Compound 747, (S)-1-[7-(3-Methyl-pyridin-2-yl)-4-(4-trifluoromethyl-phenylamino)-pyrido[2,3-d]pyrimidin-2-ylmethyl]-pyrrolidine-2-carboxylic acid] |
| < 1 µM | C[C@@H]1CN(Cc2nc(Nc3ccc(C(F)(F)F)cc3)c3ccc(-c4ncccc4C(F)(F)F)nc3n2)C[C@H](C)O1 [Compound 748, [2-(2,6-Dimethyl-morpholin-4-ylmethyl)-7-(3-trifluoromethyl-pyridin-2-yl)-pyrido[2,3-d]pyrimidin-4-yl]-(4-trifluoromethyl-phenyl)-amine (cis)] |
| < 1 µM | COCCN(CCOC)Cc1nc(Nc2ccc(C(F)(F)F)cc2)c2ccc(-c3ncccc3C(F)(F)F)nc2n1 [Compound 749, [2-{[Bis-(2-methoxy-ethyl)-amino]-methyl}-7-(3-trifluoromethyl-pyridin-2-yl)-pyrido[2,3-d]pyrimidin-4-yl]-(4-trifluoromethyl-phenyl)-amine] |
| < 1 µM | CC1(C)CCCN(Cc2nc(Nc3ccc(C(F)(F)F)cc3)c3ccc(-c4ncccc4C(F)(F)F)nc3n2)C1 [Compound 750, [2-(3,3-Dimethyl-piperidin-1-ylmethyl)-7-(3-trifluoromethyl-pyridin-2-yl)-pyrido[2,3-d]pyrimidin-4-yl]-(4-trifluoromethyl-phenyl)-amine] |
| < 1 µM | O=C(O)[C@@H]1CCCN1Cc1nc(Nc2ccc(C(F)(F)F)cc2)c2ccc(-c3ncccc3C(F)(F)F)nc2n1 [Compound 751, (S)-1-[4-(4-Trifluoromethyl-phenylamino)-7-(3-trifluoromethyl-pyridin-2-yl)-pyrido[2,3-d]pyrimidin-2-ylmethyl]-pyrrolidine-2-carboxylic acid] |
| < 1 µM | CC(C)(C)c1ccc(Nc2nc(CN3CCC[C@H]3C(=O)O)nc3cc(-c4ncccc4C(F)(F)F)cnc23)cc1 [Compound 752, (S)-1-[4-(4-tert-Butyl-phenylamino)-7-(3-trifluoromethyl-pyridin-2-yl)-pyrido[3,2-d]pyrimidin-2-ylmethyl]-pyrrolidine-2-carboxylic acid] |
| < 1 µM | CCCN(CCO)Cc1nc(Nc2ccc(C(C)(C)C)cc2)c2ccc(-c3ncccc3C(F)(F)F)cc2n1 [Compound 754, 2-{[4-(4-tert-Butyl-phenylamino)-7-(3-trifluoromethyl-pyridin-2-yl)-quinazolin-2-ylmethyl]-propyl-amino}-ethanol] |
| < 1 µM | CC(C)(C)c1ccc(Nc2nc(CN3CCCC3CO)nc3cc(-c4ncccc4C(F)(F)F)ccc23)cc1 (centres unmarked) [Compound 755, {1-[4-(4-tert-Butyl-phenylamino)-7-(3-trifluoromethyl-pyridin-2-yl)-quinazolin-2-ylmethyl]-pyrrolidin-2-yl}-methanol] |
